Where “and” joins values, the source holds several entries; their conditions need not be identical. Equal values may be shown once.
How the values were obtained:
participants [1] = assay: Resting energy expenditure, placebo-controlled crossover; format: in vivo, human
Procedure: Two participants were assigned in a randomized, double-blind, placebo-controlled, crossover fashion to ingest a non-energetic placebo (maltodextrin) or a 200 mg dose of 1-methylxanthine (1-MX). All supplements were orally ingested with 8 fluid ounces of cold tap water. Resting Energy Expenditure was measured at baseline, 30, 60, 90, 120 and 180 minutes after ingestion.

participants [2] = assay: Systolic blood pressure, crossover vs caffeine; format: in vivo, human
From the text: (§1) All supplements were orally ingested with 8 fluid ounces of cold tap water.

glutathione = assay: Glutathione level in young and old rats; format: in vivo
Procedure: Twenty-four young (6-8 Week) and twenty-four old (14-16 Months) Swiss Albino Wistar rats were housed in an animal room at a constant temperature (22±3° C.) and humidity (30%-70%) under a 12:12 h light-dark cycle with standard laboratory diet (Purina 5L79, Rat and Mouse 18% protein; PMI Nutrition International, Brentwood, MO, USA). Distilled water was provided ad libitum. All animal experiments were reviewed and approved by the Institutional Animal Ethical Committee (IAEC) of Radiant Research Services Pvt. Ltd (Bangalore, India). All research was conducted in accordance with the guidelines of the committee for the purpose of control and supervision of experiments on animals.
After one week of acclimation, the animals were randomly divided by body weight and age into six groups (n=8 per group in each test) for oral treatment once a day, at approximately same time each day (±1 hour), for 10 consecutive days: (1) vehicle control or (2) 1-methylxanthine or (3) 1-methylxanthine plus paraxanthine. The dose administered to the rat was calculated using US Food and Drug Administration for human equivalence doses (HED), assuming a human weight of 60 kg. […] Food intake was monitored daily while water intake was ad libitum. […] Body weight was recorded weekly. […]

participants [3] = assay: Resting heart rate, crossover vs caffeine; format: in vivo, human
From the text: as §1

participant = assay: Concentration by Visual Analog Scale; format: in vivo, human; set-up: Concentration (Visual Analog Scale): scale not given here
Procedure: One participant ingested 200 mg dose of 1-methylxanthine (1-MX) orally with 8 fluid ounces of cold tap water. Concentration was measured by Visual Analog Scale (VAS) at baseline, 30, 60, 90, 120 and 180 minutes after ingestion.

female wistar rats = details: rat, in vivo, 14 days
Procedure: An acute oral toxicity study of 1-Methylxanthine) was conducted in female wistar rats in accordance with OECD 423 guidelines. Rats were administered a single dose of 2,000 mg/kg orally and then observed individually for the first four hours, then over a period of 24 hours and once daily for 14 days. General behavior, adverse effects and mortality were observed throughout the experimental period. Body weights were recorded on test day 0 (prior to administration), day 3, day 7 and day 14. All the animals were necropsied and examined macroscopically. All the surviving animals had gained body weight by day 14 as compared to day 0. […] Based on the results, the median lethal dose of test substance in female rats after single oral treatment is 2,000 mg/kg body weight and is classified as category 5 and safe.

[4] = Person one, time 0, 200 mg oral
[5] = Person two, time 0, 200 mg oral

Cn1c(=O)[nH]c2nc[nH]c2c1=O [1-methylxanthine, 1-Methyl-3H-purine-2,6-dione]
Resting Energy Expenditure MEAN (participants [1]; Average): 1,897 kcals/day
Resting Energy Expenditure MEAN (participants [1]; Person one): 2,006 kcals/day
Resting Energy Expenditure (participants [1]; Person one, 30 min): 2050 kcals/day
Resting Energy Expenditure (participants [1]; Person one, 60 min): 1975 kcals/day
Resting Energy Expenditure (participants [1]; Person one, 90 min): 1988 kcals/day
Resting Energy Expenditure (participants [1]; Person one, 120 min): 1964 kcals/day
Resting Energy Expenditure (participants [1]; Person one, 180 min): 2053 kcals/day
Resting Energy Expenditure (participants [1]; [4]): 2017 kcals/day
Resting Energy Expenditure MEAN (participants [1]; Person two): 1,788 kcals/day
Resting Energy Expenditure (participants [1]; Person two, 30 min): 1789 kcals/day
Resting Energy Expenditure (participants [1]; Person two, 60 min): 1790 kcals/day
Resting Energy Expenditure (participants [1]; Person two, 90 min): 1777 kcals/day
Resting Energy Expenditure (participants [1]; Person two, 120 min): 1912 kcals/day
Resting Energy Expenditure (participants [1]; Person two, 180 min): 1670 kcals/day
Resting Energy Expenditure (participants [1]; [5]): 1769 kcals/day
systolic blood pressure change from baseline (participants [2]; 200 mg oral): did not increase
systolic blood pressure reduced in comparison to CA (participants [2]; 200 mg oral): 6.1%
Systolic Blood Pressure MEAN (30-180) (participants [2]; Average): 117.2 mm Hg
Systolic Blood Pressure MEAN (30-180) (participants [2]; Person one): 123.6 mm Hg
Systolic Blood Pressure Mean Δ from 0 (participants [2]; Person one): −1.6 mm Hg
Systolic Blood Pressure Δ vs. CA (participants [2]; Person one): −6.4 mm Hg
Systolic Blood Pressure (participants [2]; Person one, 30 min): 116 mm Hg
Systolic Blood Pressure (participants [2]; Person one, 60 min): 136 mm Hg
Systolic Blood Pressure (participants [2]; Person one, 90 min): 108 mm Hg
Systolic Blood Pressure (participants [2]; Person one, 120 min): 116 mm Hg
Systolic Blood Pressure (participants [2]; Person one, 180 min): 142 mm Hg
Systolic Blood Pressure (participants [2]; [4]): 125 mm Hg
Systolic Blood Pressure MEAN (30-180) (participants [2]; Person two): 110.8 mm Hg
Systolic Blood Pressure Mean Δ from 0 (participants [2]; Person two): −2.2 mm Hg
Systolic Blood Pressure Δ vs. CA (participants [2]; Person two): −9.6 mm Hg
Systolic Blood Pressure (participants [2]; Person two, 30 min): 125 mm Hg
Systolic Blood Pressure (participants [2]; Person two, 60 min): 110 mm Hg
Systolic Blood Pressure (participants [2]; Person two, 90 min): 113 mm Hg
Systolic Blood Pressure (participants [2]; Person two, 120 min): 114 mm Hg
Systolic Blood Pressure (participants [2]; Person two, 180 min): 92 mm Hg
Systolic Blood Pressure (participants [2]; [5]): 113 mm Hg
glutathione levels (glutathione; old rats): 25.29 ± 0.93 µg/mL
glutathione levels (glutathione; young rats, listed as 1-MX): 28.57 ± 1.36 µg/mL and 28.57 ± 1.65 µg/mL
heart rate change from baseline (participants [3]; 200 mg oral): did not increase
heart rate reduced in comparison to CA (participants [3]; 200 mg oral): 3%
Resting Heart Rate MEAN (30-180) (participants [3]; Average): 57.9 bpm
Resting Heart Rate Mean Δ from 0 (participants [3]; Average): −9.6 bpm
Resting Heart Rate MEAN (30-180) (participants [3]; Person one): 53.2 bpm
Resting Heart Rate Mean Δ from 0 (participants [3]; Person one): −11.8 bpm
Resting Heart Rate Δ vs. CA (participants [3]; Person one): −2.0 bpm
Resting Heart Rate (participants [3]; Person one, 30 min): 63 bpm
Resting Heart Rate (participants [3]; Person one, 60 min): 54 bpm
Resting Heart Rate (participants [3]; Person one, 90 min): 49 bpm
Resting Heart Rate (participants [3]; Person one, 120 min): 45 bpm
Resting Heart Rate (participants [3]; Person one, 180 min): 55 bpm
Resting Heart Rate (participants [3]; [4]): 65 bpm
Resting Heart Rate MEAN (30-180) (participants [3]; Person two): 62.6 bpm
Resting Heart Rate Mean Δ from 0 (participants [3]; Person two): −2.4 bpm
Resting Heart Rate Δ vs. CA (participants [3]; Person two): −1.0 bpm
Resting Heart Rate (participants [3]; Person two, 30 min): 61 bpm
Resting Heart Rate (participants [3]; Person two, 60 min): 60 bpm
Resting Heart Rate (participants [3]; Person two, 90 min): 65 bpm
Resting Heart Rate (participants [3]; Person two, 120 min): 60 bpm
Resting Heart Rate (participants [3]; Person two, 180 min): 62 bpm
Resting Heart Rate (participants [3]; [5]): 65 bpm
Concentration (VAS) MEAN (30-180) (participant; Average): 61.2
Concentration (VAS) MEAN (30-180) (participant; Person one): 54.4
Concentration (Visual Analog Scale) (participant; Person one, 30 min): 60
Concentration (Visual Analog Scale) (participant; Person one, 60 min): 61
Concentration (Visual Analog Scale) (participant; Person one, 90 min): 50
Concentration (Visual Analog Scale) (participant; Person one, 120 min): 50
Concentration (Visual Analog Scale) (participant; Person one, 180 min): 51
Concentration (Visual Analog Scale) (participant; [4]): 50
Concentration (VAS) MEAN (30-180) (participant; Person two): 68.0
Concentration (Visual Analog Scale) (participant; Person two, 30 min): 65
Concentration (Visual Analog Scale) (participant; Person two, 60 min): 65
Concentration (Visual Analog Scale) (participant; Person two, 90 min): 65
Concentration (Visual Analog Scale) (participant; Person two, 120 min): 75
Concentration (Visual Analog Scale) (participant; Person two, 180 min): 70
Concentration (Visual Analog Scale) (participant; [5]): 65
toxicity classification (female wistar rats): category 5
median lethal dose (female wistar rats; po): 2,000 mg/kg body weight

— patent US12390470B2, “1-methylxanthine-based bioactive composition and method of use thereof” (Ingenious Ingredients, LP, priority 2021, dated 2025)
